Results from patent US20250127887A1 (priority 2021, published 2025).
Square brackets hold non-standard residues; d marks the D form. Ends that are not written are not given here. * marks the point of attachment. Azp = azidopentanoic acid, [N-]=[N+]=NCCCCC(=O)*; Cit = NC(=O)NCCC[C@H](N)C(=O)O

Columns and labels:
T cells = assay: In vitro T cell recognition of modified E7 and Reps1 peptide antigen fragments; type: cell-based; conditions: E7 (RAHYNIVTF) and Reps1 (AQLANDVVL) fragments modified at N- or C-terminus; FIGS. 28A and B
Excerpt: To study the impact of the solubilizing block and extensions on peptide antigen recognition by T cells in vitro, two model antigens, E7 ([…]) and Reps1 ([…]), modified at the N-terminal and/or C-terminal positions were produced by solid-phase peptide synthesis (Tables 25 and 26), and then screened in vitro for T cell recognition (FIG. 28).

[1] = test system: antigen specific CD4 T cells expressing FOXP3; assay: Proportion of T cells expressing Tbet or Foxp3; Treg induction by tolerance vaccines with inhibitors and immunostimulants; type: cell-based
OT-II cells = assay: In vitro induction of regulatory T cells by tolerance vaccine formulations in co-culture of CD11c+ APCs and OT-II cells, flow cytometry; type: cell-based; conditions: 500 nM peptide antigen conjugate, three days
[2] = type: physicochemical; conditions: pH 7.4
[3] = pH-responsiveness of carboxylic acid amphiphiles by turbidity (OD at 490 nm); type: physicochemical; conditions: 0.1 mM in 1×PBS at pH 7.4, 7.0 or 6.5
[4] = Torin-1 combined with TLR-7/8a 2BXy, peptide antigen conjugate 500 nM

## 341: "modification of the C-terminus of peptide antigen fragments (e.g., Compounds 341 and 362) is more well tolerated" (RAHYNIVTFSV[Cit][Azidolysine]-NH2) [Compound 341]
T cells
  potency for T cell recognition: more well tolerated

## 364: "modification of the N-terminus of peptide antigen fragments (e.g., Compounds, 343 and 364) negatively impacts potency" (Azp-V[Cit]AQLANDVVL-NH2; SMILES CC(C)C[C@H](NC(=O)[C@@H](NC(=O)[C@@H](NC(=O)[C@H](CC(=O)O)NC(=O)[C@H](CC(N)=O)NC(=O)[C@H](C)NC(=O)[C@H](CC(C)C)NC(=O)[C@H](CCC(N)=O)NC(=O)[C@H](C)NC(=O)[C@H](CCCNC(N)=O)NC(=O)[C@@H](NC(=O)CCCCN=[N+]=[N-])C(C)C)C(C)C)C(C)C)C(N)=O) [Compound 364]
T cells
  potency for T cell recognition: negatively impacts potency

## 343: "modification of the N-terminus of peptide antigen fragments (e.g., Compounds, 343 and 364) negatively impacts potency" (Azp-V[Cit]RAHYNIVTFS-NH2; SMILES CC[C@H](C)[C@H](NC(=O)[C@H](CC(N)=O)NC(=O)[C@H](Cc1ccc(O)cc1)NC(=O)[C@H](Cc1c[nH]cn1)NC(=O)[C@H](C)NC(=O)[C@H](CCCNC(=N)N)NC(=O)[C@H](CCCNC(N)=O)NC(=O)[C@@H](NC(=O)CCCCN=[N+]=[N-])C(C)C)C(=O)N[C@H](C(=O)N[C@H](C(=O)N[C@@H](Cc1ccccc1)C(=O)N[C@@H](CO)C(N)=O)[C@@H](C)O)C(C)C) [Compound 343]
T cells
  potency for T cell recognition: negatively impacts potency

## CCC(=O)N1CCN(c2ccc(-n3c(=O)ccc4cnc5ccc(-c6cnc7ccccc7c6)cc5c43)cc2C(F)(F)F)CC1 [Torin-1, Torin 1]
[1]; Torin-1 combined with TLR-7/8a 2BXy, versus other immunostimulants
  Magnitude of Tregs induced by tolerance vaccines: highest magnitude Treg responses
[1]; [4]
  Magnitude of Treg responses, fold higher than Torin-1 alone: 2 fold
  Magnitude of Treg responses, fold higher than the vaccine without Torin-1: 8 fold
[1]; compared with SR1555, rapamycin and ITE, peptide antigen conjugate 500 nM
  Proportion of antigen specific CD4 T cells expressing FOXP3: higher proportion of antigen specific CD4 T cells expressing FOXP3
OT-II cells
  proportion of Tregs (Treg/Tbet) relative to formulations with rapamycin: 2-4 fold
OT-II cells; vaccines with inhibitor vs without inhibitors, FIGS. 25 and 26
  number and proportion of Tregs induced: significantly higher

## KKKKKKK-SGSGSGSGSGSGSGSGSGSGSGSG-(Lys(N3-DBCO))-Ahx-(F′)5 [Compound 91]
[2]
  Size (diameter, nm): 477 nm

## {Succinic acid}4K2K{Lys(N3-DBCO)}-Ahx-2B3W2 [Compound 274]
[3]
  pH-responsiveness: aggregation / particle size stability by turbidity (OD at 490 nm): stable particle sizes down to at least pH 7.0
